The record followed here is US20240294508A1, “RIP1 MODULATORS INCLUDING AZETIDINE CYCLIC UREAS, PREPARATIONS, AND USES THEREOF” (SIRONAX LTD., priority 2021, published 2024).

The term EC50 denotes the midpoint of the concentration-response curve.

Structures are written as SMILES.

The test system of the assay is HT-29 cells. As to the kind of experiment: HT29 cells 0FBS assay in vitro: TNF-α/SMAC mimetic/zVAD-FMK induced necroptosis, CellTiter-Glo cell viability (RIP1 inhibitory activity). The format is cell-based. Particulars: Homo sapiens, FBS free medium, TNF-α (10 ng/ml) + SMAC mimetic (6 uM) + zVAD-FMK (10 μM), 20 hours, geometric mean EC50. The essentials:
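HT-29 cells (5,000/well, overnight) switched to FBS-free McCOY's 5A with TNF-α (10 ng/ml), SMAC mimetic (6 uM) and zVAD-FMK (10 μM) to drive necroptosis, plus compound, for 20 hours at 37° C. Viability read by CellTiter-Glo luminescence; geometric mean EC50 from 10-point duplicate dose-response.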
Background: Cellular ATP, detected with luciferase, serves as a proxy for viable cell number.
Regarding `Cc1nc([C@@H]2CC=NN2C(=O)N2CC(Oc3cc(-c4c(C)cnn4C)ncc3F)C2)cs1` [Compound 120, (S)-(3-((2-(1,4-dimethyl-1H-pyrazol-5-yl)-5-fluoropyridin-4-yl)oxy)azetidin-1-yl)(5-(2-methylthiazol-4-yl)-4,5-dihydro-1H-pyrazol-1-yl)methanone], the EC50 lay within 0.1 to 100 nM.
Consider `Cn1ccnc1-c1cc(OC2CN(C(=O)N3N=CC[C@H]3c3cncc(C#N)c3)C2)c(F)cn1` [Compound 38, (S)-5-(1-(3-((5-fluoro-2-(1-methyl-1H-imidazol-2-yl)pyridin-4-yl)oxy)azetidine-1-carbonyl)-4,5-dihydro-1H-pyrazol-5-yl)nicotinonitrile], for which the EC50 was 100 to 1000 nM.
Consider `Cc1cc(F)cc([C@H]2CC=NN2C(=O)N2CC(Oc3cc(-n4nc(C)c(C(N)=O)c4C)ncc3F)C2)c1` [Compound 136, (R)-1-(5-fluoro-4-((1-(5-(3-fluoro-5-methylphenyl)-4,5-dihydro-1H-pyrazole-1-carbonyl)azetidin-3-yl)oxy)pyridin-2-yl)-3,5-dimethyl-1H-pyrazole-4-carboxamide], for which the half-maximal effective concentration (EC50) is 100 to 1000 nM.
For `Cn1ccnc1-c1cc(OC2CN(C(=O)N3N=CC[C@H]3c3cncc(F)c3)C2)c(F)cn1` [Compound 37, (S)-(3-((5-fluoro-2-(1-methyl-1H-imidazol-2-yl)pyridin-4-yl)oxy)azetidin-1-yl)(5-(5-fluoropyridin-3-yl)-4,5-dihydro-1H-pyrazol-1-yl)methanone] the value was 0.1 to 100 nM.
As for `CNC(=O)c1c(C)nn(-c2cc(OC3CN(C(=O)N4N=CC[C@H]4c4cc(F)cc(C#N)c4)C3)c(F)cn2)c1C` [Compound 80, (S)-1-(4-((1-(5-(3-cyano-5-fluorophenyl)-4,5-dihydro-1H-pyrazole-1-carbonyl)azetidin-3-yl)oxy)-5-fluoropyridin-2-yl)-N,3,5-trimethyl-1H-pyrazole-4-carboxamide], the figure is 0.1 to 100 nM; as for `Cc1cnn(C)c1-c1cc(OC2CN(C(=O)N3N=CC[C@H]3c3cncc(C#N)c3)C2)c(F)cn1` [Compound 42, (S)-5-(1-(3-((2-(1,4-dimethyl-1H-pyrazol-5-yl)-5-fluoropyridin-4-yl)oxy)azetidine-1-carbonyl)-4,5-dihydro-1H-pyrazol-5-yl)nicotinonitrile], 0.1 to 100 nM; as for `Cc1nn(-c2cc(OC3CN(C(=O)N4N=CC[C@H]4c4ccccc4)C3)c(F)cn2)c(C)c1S(N)(=O)=O` [Compound 113, (S)-1-(5-fluoro-4-((1-(5-phenyl-4,5-dihydro-1H-pyrazole-1-carbonyl)azetidin-3-yl)oxy)pyridin-2-yl)-3,5-dimethyl-1H-pyrazole-4-sulfonamide], 0.1 to 100 nM.
For `Cn1ccnc1-c1cc(OC2CN(C(=O)N3N=CC[C@H]3c3cc(F)cc(C#N)c3)C2)c(F)cn1` [Compound 36, (S)-3-fluoro-5-(1-(3-((5-fluoro-2-(1-methyl-1H-imidazol-2-yl)pyridin-4-yl)oxy)azetidine-1-carbonyl)-4,5-dihydro-1H-pyrazol-5-yl)benzonitrile] the value was 0.1 to 100 nM.
On to `Cn1ncc(C#N)c1-c1cc(OC2CN(C(=O)N3N=CC[C@H]3c3cc(F)cc(C#N)c3)C2)c(F)cn1` [Compound 9, (S)-5-(4-((1-(5-(3-cyano-5-fluorophenyl)-4,5-dihydro-1H-pyrazole-1-carbonyl)azetidin-3-yl)oxy)-5-fluoropyridin-2-yl)-1-methyl-1H-pyrazole-4-carbonitrile], for which the EC50 is 0.1 to 100 nM.
As for `Cc1cc(F)cc([C@@H]2CC=NN2C(=O)N2CC(Oc3cc(-n4nc(C)c(C(=O)O)c4C)ncc3F)C2)c1` [Compound 142, (S)-1-(5-fluoro-4-((1-(5-(3-fluoro-5-methylphenyl)-4,5-dihydro-1H-pyrazole-1-carbonyl)azetidin-3-yl)oxy)pyridin-2-yl)-3,5-dimethyl-1H-pyrazole-4-carboxylic acid], the figure is 0.1 to 100 nM; as for `Cc1c(N)nn(C)c1-c1ccc(F)c(OC2CN(C(=O)N3N=CC[C@H]3c3cncc(F)c3)C2)n1` [Compound 67, (S)-(3-((6-(3-amino-1,4-dimethyl-1H-pyrazol-5-yl)-3-fluoropyridin-2-yl)oxy)azetidin-1-yl)(5-(5-fluoropyridin-3-yl)-4,5-dihydro-1H-pyrazol-1-yl)methanone], 0.1 to 100 nM; as for `Cc1cnn(C)c1-c1cnc(OC2CN(C(=O)N3N=CC[C@H]3c3cc(F)cc(F)c3)C2)s1` [Compound 154, (S)-(5-(3,5-difluorophenyl)-4,5-dihydro-1H-pyrazol-1-yl)(3-((5-(1,4-dimethyl-1H-pyrazol-5-yl)thiazol-2-yl)oxy)azetidin-1-yl)methanone], 0.1 to 100 nM.
With `Cc1nsc(C)c1-c1cc(OC2CN(C(=O)N3N=CC[C@H]3c3cc(F)cc(C#N)c3)C2)c(F)cn1` [Compound 31, (S)-3-(1-(3-((2-(3,5-dimethylisothiazol-4-yl)-5-fluoropyridin-4-yl)oxy)azetidine-1-carbonyl)-4,5-dihydro-1H-pyrazol-5-yl)-5-fluorobenzonitrile], the EC50 is 0.1 to 100 nM.
As for `Cc1nc(C2CC=NN2C(=O)N2CC(Oc3cc(-c4ccnn4C)c(F)cc3F)C2)cs1` (stereo not shown) [Compound 132, (3-(2,4-difluoro-5-(1-methyl-1H-pyrazol-5-yl)phenoxy)azetidin-1-yl)(5-(2-methylthiazol-4-yl)-4,5-dihydro-1H-pyrazol-1-yl)methanone], the figure is 0.1 to 100 nM; as for `COCCn1nc(C)c(-c2cc(OC3CN(C(=O)N4N=CC[C@H]4c4cc(F)cc(C#N)c4)C3)c(F)cn2)c1C` [Compound 20, (S)-3-fluoro-5-(1-(3-((5-fluoro-2-(1-(2-methoxyethyl)-3,5-dimethyl-1H-pyrazol-4-yl)pyridin-4-yl)oxy)azetidine-1-carbonyl)-4,5-dihydro-1H-pyrazol-5-yl)benzonitrile], 0.1 to 100 nM.
For `Cc1cnn(C)c1-c1csc(OC2CN(C(=O)N3N=CC[C@H]3c3cc(F)cc(F)c3)C2)n1` [Compound 146, (S)-(5-(3,5-difluorophenyl)-4,5-dihydro-1H-pyrazol-1-yl)(3-((4-(1,4-dimethyl-1H-pyrazol-5-yl)thiazol-2-yl)oxy)azetidin-1-yl)methanone] the value was 0.1 to 100 nM; for `Cc1nc(C)c(C2CC=NN2C(=O)N2CC(Oc3cc(-c4c(C)cnn4C)ncc3F)C2)s1` (stereo not shown) [Compound 119, (3-((2-(1,4-dimethyl-1H-pyrazol-5-yl)-5-fluoropyridin-4-yl)oxy)azetidin-1-yl)(5-(2,4-dimethylthiazol-5-yl)-4,5-dihydro-1H-pyrazol-1-yl)methanone], 100 to 1000 nM.
As for `Cc1nn(-c2cc(OC3CN(C(=O)N4N=CC[C@H]4c4ccccc4)C3)c(F)cn2)c(C)c1C(=O)NC1COC1` [Compound 76, (S)-1-(5-fluoro-4-((1-(5-phenyl-4,5-dihydro-1H-pyrazole-1-carbonyl)azetidin-3-yl)oxy)pyridin-2-yl)-3,5-dimethyl-N-(oxetan-3-yl)-1H-pyrazole-4-carboxamide], the figure is 0.1 to 100 nM.
Consider `Cc1nn(-c2cc(OC3CN(C(=O)N4N=CC[C@@H]4c4cc(F)cc(Cl)c4)C3)c(F)cn2)c(C)c1C(=O)O` [Compound 141, (R)-1-(4-((1-(5-(3-chloro-5-fluorophenyl)-4,5-dihydro-1H-pyrazole-1-carbonyl)azetidin-3-yl)oxy)-5-fluoropyridin-2-yl)-3,5-dimethyl-1H-pyrazole-4-carboxylic acid], for which the EC50 lay in the range of 100 to 1000 nM.
For `Cc1cnn(C)c1-c1cc(OC2CN(C(=O)N3N=CCC3c3ncccc3Cl)C2)c(F)cn1` (stereo not shown) [Compound 93, (5-(3-chloropyridin-2-yl)-4,5-dihydro-1H-pyrazol-1-yl)(3-((2-(1,4-dimethyl-1H-pyrazol-5-yl)-5-fluoropyridin-4-yl)oxy)azetidin-1-yl)methanone] the value was 0.1 to 100 nM.
With `Cc1c(C#N)nn(C)c1-c1ccc(F)c(OC2CN(C(=O)N3N=CC[C@H]3c3cc(F)cc(C#N)c3)C2)n1` [Compound 56, (S)-5-(6-((1-(5-(3-cyano-5-fluorophenyl)-4,5-dihydro-1H-pyrazole-1-carbonyl)azetidin-3-yl)oxy)-5-fluoropyridin-2-yl)-1,4-dimethyl-1H-pyrazole-3-carbonitrile], the EC50 was 0.1 to 100 nM.
As for `Cc1nn(-c2cc(OC3CN(C(=O)N4N=CC[C@H]4c4ccccc4)C3)c(F)cn2)c(C)c1C(N)=O` [Compound 71, (S)-1-(5-fluoro-4-((1-(5-phenyl-4,5-dihydro-1H-pyrazole-1-carbonyl)azetidin-3-yl)oxy)pyridin-2-yl)-3,5-dimethyl-1H-pyrazole-4-carboxamide], the figure is 0.1 to 100 nM; as for `Cc1nn(-c2cc(OC3CN(C(=O)N4N=CC[C@H]4c4cccc(F)c4)C3)c(F)cn2)c(C)c1C(=O)NC1COC1` [Compound 77, (S)-1-(5-fluoro-4-((1-(5-(3-fluorophenyl)-4,5-dihydro-1H-pyrazole-1-carbonyl)azetidin-3-yl)oxy)pyridin-2-yl)-3,5-dimethyl-N-(oxetan-3-yl)-1H-pyrazole-4-carboxamide], 0.1 to 100 nM; as for `Cc1nn(-c2cc(OC3CN(C(=O)N4N=CC[C@H]4c4cc(F)cc(C#N)c4)C3)c(F)cn2)c(C)c1C(=O)NC1COC1` [Compound 85, (S)-1-(4-((1-(5-(3-cyano-5-fluorophenyl)-4,5-dihydro-1H-pyrazole-1-carbonyl)azetidin-3-yl)oxy)-5-fluoropyridin-2-yl)-3,5-dimethyl-N-(oxetan-3-yl)-1H-pyrazole-4-carboxamide], 0.1 to 100 nM.
With `Cc1noc(C)c1-c1ncc(F)c(OC2CN(C(=O)N3N=CC[C@H]3c3cncc(F)c3)C2)n1` [Compound 4, (S)-(3-((2-(3,5-dimethylisoxazol-4-yl)-5-fluoropyrimidin-4-yl)oxy)azetidin-1-yl)(5-(5-fluoropyridin-3-yl)-4,5-dihydro-1H-pyrazol-1-yl)methanone], the EC50 lay within 0.1 to 100 nM.
